The subject of one test is Caov-3 cells. Kind of test: Caov-3 cellular viability assay (ATP-Lite, 72 h). Conditions: Homo sapiens, ATP-Lite luminescence, % viability relative to DMSO. The format is cell-based. The protocol: Caov-3 cell line was purchased from ATCC (ATCC® HTB-75™). Cells were isolated from the ovary of a ovarian cancer patient.
Caov-3 cells are cultured in DMEM (ATCC 30-2002) containing 10% heat-inactivated and 0.22 μm filtered FBS (Gibco 10270-106). The cells are seeded at 2.5E+4cell/cm^2 within the recommended subcultivation ratio of 1:3 to 1:6, as stated on the certificate of analysis issues by the provider of the cells.
(§1) Cellular viability assay: Caov-3 cells were plated (50 μL) in 96-well cell culture microplates (PS, F-Bottom black, Cellstar, Greiner 655086) at final concentration of 10000 cells/well. The compounds of the invention were dissolved in DMSO, and a titration curve was generated at 1000× final concentration. Compounds were then diluted 500× in tissue culture medium (RPMI-1640, 10% FBS). Then 50 μl of test compound were added to Caov-3 cells in a final DMSO concentration of 0.1%, final volume 100 μl. A gas permeable sealing membrane was applied to the plate to prevent evaporation (Breathe-Easy sealing membrane, Sigma Z380059-1PK) and cells were incubated for 72 h at 37° C., 5% CO2, 80% RH. After 72 h of treatment, the plates were taken out of the incubator and left for a few minutes at room temperature. 100 μl of the reconstituted reagent ATP-Lite One Step (Perkin Elmer, 6016739) were added to each well. The plates were shaken for 2 min at 700 rpm and placed in the dark for 10 minutes at room temperature before measurement of luminescence intensity with Envision instrument. The raw data were expressed in RLU. Results were expressed in % of viability relative to DMSO control and an IC50 was calculated based on the concentration-response profile of individual compounds.

A further test relates to Kasumi-1 cells. As to the kind of experiment: Kasumi-1 cellular viability assay (ATP-Lite, 72 h). The format is cell-based. Conditions: Homo sapiens, ATP-Lite luminescence, % viability relative to DMSO. How it is done: Kasumi-1 cell line was purchased from ATCC (ATCC® CRL2724™). Cells were isolated from the peripheral blood of a child with acute myeloid leukemia (AML FAB M2) (in 2nd relapse after bone marrow transplantation) in 1989. Most cells are round. Kasumi-1 cells are observed to grow individually or in small clumps in suspension.
Kasumi-1 cells are cultured in RPMI-1640 (Gibco A10491-01) containing 10% heat-inactivated and 0.22 μm filtered FBS (Gibco 10270-106) at a density of 3E+5 and 3E+6 viable cell/mL following the certificate of analysis.
as §1, with “assay: Kasumi-1” for “assay: Caov-3”, “of 15000” for “of 10000”, “to Kasumi-1” for “to Caov-3”, “After 72h” for “After 72 h”, “6016739) was” for “6016739) were”

Test [1] deals with T1, recombinant METTL3/METTL14 complex (Homo sapiens, UniProt Q86U44).
T1 construct: purchased Active Motif 311970; host or cells: Sf9 cells
T1 sequence (Q86U44 whole entry): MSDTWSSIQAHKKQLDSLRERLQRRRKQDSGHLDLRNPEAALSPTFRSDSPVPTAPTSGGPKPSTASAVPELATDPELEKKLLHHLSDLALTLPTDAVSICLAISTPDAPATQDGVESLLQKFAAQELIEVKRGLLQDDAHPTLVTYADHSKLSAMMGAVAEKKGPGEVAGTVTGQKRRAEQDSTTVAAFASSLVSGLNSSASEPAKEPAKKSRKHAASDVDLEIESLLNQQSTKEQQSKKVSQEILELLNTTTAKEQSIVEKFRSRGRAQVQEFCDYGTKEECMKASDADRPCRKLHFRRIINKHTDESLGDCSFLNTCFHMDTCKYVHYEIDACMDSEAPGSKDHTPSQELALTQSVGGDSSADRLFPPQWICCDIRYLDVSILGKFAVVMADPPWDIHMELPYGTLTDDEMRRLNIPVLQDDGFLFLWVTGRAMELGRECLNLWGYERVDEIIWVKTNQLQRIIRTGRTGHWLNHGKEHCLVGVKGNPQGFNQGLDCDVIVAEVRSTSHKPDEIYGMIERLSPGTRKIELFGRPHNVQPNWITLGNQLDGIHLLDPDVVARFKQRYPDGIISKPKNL
T1 sequence (Q9HCE5 whole entry partner): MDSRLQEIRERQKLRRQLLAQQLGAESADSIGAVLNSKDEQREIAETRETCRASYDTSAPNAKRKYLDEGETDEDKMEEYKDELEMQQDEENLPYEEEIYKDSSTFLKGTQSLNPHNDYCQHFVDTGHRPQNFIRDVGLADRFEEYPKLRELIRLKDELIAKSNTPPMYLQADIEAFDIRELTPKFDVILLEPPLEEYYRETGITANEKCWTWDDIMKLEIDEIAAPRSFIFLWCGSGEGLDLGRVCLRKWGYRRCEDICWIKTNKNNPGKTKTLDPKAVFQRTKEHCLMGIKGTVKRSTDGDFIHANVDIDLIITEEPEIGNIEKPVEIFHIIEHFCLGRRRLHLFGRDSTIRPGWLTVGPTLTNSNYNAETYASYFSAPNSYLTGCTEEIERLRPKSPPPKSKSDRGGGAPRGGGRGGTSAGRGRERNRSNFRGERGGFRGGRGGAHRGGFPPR
Kind of test: METTL3/14 Scintillation Proximity Assay (SPA), RNA methyltransferase activity. It is filed as biochemical. Conditions: 5.31 nM METTL3/14 complex, 250 nM RNA substrate, 1 μM 3H-SAM, 90 min; for compounds marked * best of the two separated forms. For orientation: SPA uses beads or plates that emit light when radiolabelled molecules are held near them.

For `c1cnn(-c2cncc(-c3cn(C4(c5ccc(N6CCC[C@@H](NCC7CCC7)C6)cn5)COC4)nn3)n2)c1` [Compound 289, (R)-1-(6-(3-(4-(6-(1H-pyrazol-1-yl)pyrazin-2-yl)-1H-1,2,3-triazol-1-yl)oxetan-3-yl)pyridin-3-yl)-N-(cyclobutylmethyl)piperidin-3-amine], the results for the IC50 (with Caov-3 cells; with Kasumi-1 cells; in test [1]) were at most 500 nM, at most 500 nM and at most 50 nM, respectively.

Regarding `CC1CN(c2cncc(-c3cn(C(C)n4ccc(N5CCC[C@@H](NCC6CCC6)C5)cc4=O)nn3)c2)C1` (single isomer, unassigned) [Compound 177], the IC50 with Caov-3 cells is at most 500 nM; in the test with Kasumi-1 cells, at most 500 nM; in test [1], at most 50 nM.

On to `CC(NC(=O)c1cc(=O)n2ccccc2n1)c1ccc(N2CCC[C@@H](NCC3CCC3)C2)nn1` (single isomer, unassigned) [Compound 051], for which the IC50 in the test on Caov-3 cells is 500 to 5000 nM; with Kasumi-1 cells, over 5000 nM; in test [1] it was at most 50 nM.

Take `COc1cc(-c2cn(Cc3ccc(N4CCC[C@@H](NC5CCC5)C4)nn3)nn2)c2cn[nH]c2c1` [Compound 030, (R)-N-cyclobutyl-1-(6-((4-(6-methoxy-1H-indazol-4-yl)-1H-1,2,3-triazol-1-yl)methyl)pyridazin-3-yl)piperidin-3-amine]: the IC50 in the test with Caov-3 cells is 500 to 5000 nM; with Kasumi-1 cells, 500 to 5000 nM; in test [1] it was at most 50 nM.

On to `O=C(Nc1cncc(N2CCCC2)n1)C1(c2ccc(N3CCC[C@@H](NCC4CC4)C3)cn2)COC1` [Compound 248, (R)-3-(5-(3-((cyclopropylmethyl)amino)piperidin-1-yl)pyridin-2-yl)-N-(6-(pyrrolidin-1-yl)pyrazin-2-yl)oxetane-3-carboxamide], for which the values for the IC50 (with Caov-3 cells; in the test on Kasumi-1 cells; in test [1]) were at most 500 nM, at most 500 nM and at most 50 nM, respectively.

As for `CC(n1cc(-c2cncc(N3CCN(C)C3=O)c2)nn1)n1ccc(N2CCC[C@@H](NCC3CCC3)C2)cc1=O` (single isomer, unassigned) [Compound 153], the figures for the IC50 (with Caov-3 cells; in the test on Kasumi-1 cells; in test [1]) were over 5000 nM, over 5000 nM and at most 50 nM, respectively.

With `CC1(CN[C@@H]2CCCN(c3ccc(C4(c5nnc(-c6cncc(N7CCCC7)n6)s5)COC4)nc3)C2)CC1` [Compound 367, (R)-N-((1-methylcyclopropyl)methyl)-1-(6-(3-(5-(6-(pyrrolidin-1-yl)pyrazin-2-yl)-1,3,4-thiadiazol-2-yl)oxetan-3-yl)pyridin-3-yl)piperdin-3-amine], the IC50 was at most 500 nM in the test on Caov-3 cells, at most 500 nM in the test with Kasumi-1 cells and at most 50 nM in test [1].

As for `O=C(Nc1cncc(C2CCCC2)n1)C1(c2ccc(N3CCC[C@@H](NCC4CCC4)C3)cn2)COC1` [Compound 268, (R)-3-(5-(3-((cyclobutylmethyl)amino)piperidin-1-yl)pyridin-2-yl)-N-(6-cyclopentylpyrazin-2-yl)oxetane-3-carboxamide], the IC50 is 500 to 5000 nM with Caov-3 cells, 500 to 5000 nM in the test on Kasumi-1 cells and at most 50 nM in test [1].

Regarding `CC(c1ccc(N2CCC[C@@H](NCC3CC3)C2)nn1)n1cc(-c2cncc(N3CCCC3)n2)nn1` (single isomer, unassigned) [Compound 309], the IC50 in the test on Caov-3 cells is at most 500 nM; with Kasumi-1 cells, at most 500 nM; in test [1] it was at most 50 nM.

As for `CC(c1ccc(N2CCC[C@@H](NCC3CC3)C2)cn1)n1cc(-c2cncc(N(C)C)n2)nn1` (single isomer, unassigned) [Compound 260], the IC50 is at most 500 nM with Caov-3 cells, at most 500 nM in the test on Kasumi-1 cells and at most 50 nM in test [1].

As for `O=c1cc(N2CCC[C@@H](NCC3CC3)C2)ccn1Cn1cc(-c2cncc(N3CCCC3)n2)nn1` [Compound 201, (R)-4-(3-((cyclopropylmethyl)amino)piperidin-1-yl)-1-((4-(6-(pyrrolidin-1-yl)pyrazin-2-yl)-1H-1,2,3-triazol-1-yl)methyl)pyridin-2(1H)-one], the values for the IC50 (in the test on Caov-3 cells; with Kasumi-1 cells; in test [1]) were at most 500 nM, at most 500 nM and at most 50 nM, respectively.

For `c1ncc(C2CC2)cc1-c1cn(C2(c3ccc(N4CCC[C@@H](NCC5CCC5)C4)cn3)COC2)nn1` [Compound 306, (R)-N-(cyclobutylmethyl)-1-(6-(3-(4-(5-cyclopropylpyridin-3-yl)-1H-1,2,3-triazol-1-yl)oxetan-3-yl)pyridin-3-yl)piperidin-3-amine], the IC50 in the test with Caov-3 cells is at most 500 nM; in the test with Kasumi-1 cells, at most 500 nM; in test [1], at most 50 nM.

Consider `CC(c1ncc(N2CCC[C@@H](NCC3CCC3)C2)cc1F)n1cc(-c2cncc(N3CCCC3)n2)nn1` (single isomer, unassigned) [Compound 303], for which the IC50 is at most 500 nM in the test on Caov-3 cells, at most 500 nM in the test on Kasumi-1 cells and at most 50 nM in test [1].

Regarding `c1cc(Cc2nnc(-c3cncc(N4CCCC4)n3)s2)ncc1N1CCC[C@@H](NCC2CC2)C1` [Compound 361, (R)-N-(cyclopropylmethyl)-1-(6-((5-(6-(pyrrolidin-1-yl)pyrazin-2-yl)-1,3,4-thiadiazol-2-yl)methyl)pyridin-3-yl)piperidin-3-amine], the IC50 was at most 500 nM in the test on Caov-3 cells, at most 500 nM in the test on Kasumi-1 cells and at most 50 nM in test [1].

As to `CC(c1cnn(-c2cncc(N3CCCC3)c2)c1)n1ccc(N2CCC[C@@H](NCC3CC3)C2)cc1=O` (single isomer, unassigned) [Compound 253], the IC50 was at most 500 nM in the test on Caov-3 cells, at most 500 nM with Kasumi-1 cells and at most 50 nM in test [1].

Turning to `CCOc1cncc(-c2cn(C(C)c3ccc(N4CCC[C@@H](NCC5CCC5)C4)nn3)nn2)c1` (single isomer, unassigned) [Compound 187], the IC50 in the test on Caov-3 cells is at most 500 nM; in the test on Kasumi-1 cells, 500 to 5000 nM; in test [1], at most 50 nM.

Regarding `CC(c1ccc(N2CCC[C@@H](NCC3CCC3)C2)cn1)c1cnc(-c2cncc(N(C)C)c2)s1` (single isomer, unassigned) [Compound 169], the IC50 was at most 500 nM with Caov-3 cells, at most 500 nM in the test with Kasumi-1 cells and at most 50 nM in test [1].

For the compound `CCC(NC(=O)c1cc(=O)n2ccccc2n1)c1ccc(N2CCC[C@@H](NCC3CCC3)C2)nn1` (single isomer, unassigned) [Compound 083], the values for the IC50 (with Caov-3 cells; in the test with Kasumi-1 cells; in test [1]) were 500 to 5000 nM, over 5000 nM and at most 50 nM, respectively.

With `COc1cc(-c2cn(Cc3ccc(N4CCC[C@@H](NCC(C)C)C4)nn3)nn2)c2cn[nH]c2c1` [Compound 031, (R)-N-isobutyl-1-(6-((4-(6-methoxy-1H-indazol-4-yl)-1H-1,2,3-triazol-1-yl)methyl)pyridazin-3-yl)piperidin-3-amine], the IC50 is 500 to 5000 nM with Caov-3 cells, 500 to 5000 nM in the test on Kasumi-1 cells and at most 50 nM in test [1].

In the case of `CC(c1ccc(N2CCC[C@@H](NCC3(C)CC3)C2)cn1)n1cnc(-c2cncc(N3CCCC3)n2)c1` (single isomer, unassigned) [Compound 365], the IC50 in the test with Caov-3 cells is at most 500 nM; with Kasumi-1 cells it was at most 500 nM; in test [1], at most 50 nM.

On to `CC(n1cc(-c2cncc(N3CC4(COC4)C3)c2)nn1)n1ccc(N2CCC[C@@H](NCC3CCC3)C2)cc1=O` (single isomer, unassigned) [Compound 191], for which the figures for the IC50 (in the test with Caov-3 cells; in the test with Kasumi-1 cells; in test [1]) were at most 500 nM, 500 to 5000 nM and at most 50 nM, respectively.

For orientation: IC50 means the concentration needed to halve the response being measured.

The values above are taken from US20250002475A1 (EPICS THERAPEUTICS, priority 2023, published 2025).
